Experimental data reported in US8722877B2, “7-deazapurine modulators of histone methyltransferase, and methods of use thereof” (Epizyme, Inc., priority 2010, dated 2014).
Where a name gives a salt, the structure may show the parent alone. Read-outs that look alike come from different tables or passages of the source. One block for each compound: values may come before it.

Legend:
[1] = test system: Jurkat cells; assay: Proliferation assay, Jurkat cells; assay type: cell-based, human; details: 3 μM, several days
[2] = test system: MV4-11 cells; assay: Proliferation assay, MV4-11 cells; assay type: cell-based, human; details: 3 μM, several days
[3] = test system: H3K79me2 in MV4-11 cells; assay: Cellular histone methylation immunoblot in MV4-11 cells
[4] = test system: HOXA9; assay: HOXA9 transcript levels by quantitative real-time PCR; details: for IC50: read-out: decrease of HOXA9 transcript, IC50
[5] = test system: CD14; assay: Cell surface expression of differentiation marker CD14 by flow cytometry, MOLM-13 cells; details: 3 μM
[6] = test system: H3K79me2 in Jurkat cells; assay: Cellular H3K79me2 immunoblot in Jurkat cells; details: Jurkat (non-MLL-rearranged)
[7] = test system: H3K79 methylation in MOLM-13 cells; assay: Cellular H3K79 methylation analysis (histone immunoblot) in MOLM-13 cells; assay type: cell-based, human
[8] = test system: MEIS1; assay: MEIS1 transcript levels by quantitative real-time PCR; details: for IC50: read-out: decrease of MEIS1 transcript, IC50
[9] = test system: MLL-rearranged human leukemia cell lines; assay: Proliferation IC50 in panel of MLL-rearranged leukemia cell lines; assay type: cell-based; details: six MLL-rearranged cell lines (FIG. 6)
[10] = test system: TBP; assay: Housekeeping gene TBP transcript levels
[11] = target: DOT1L(1-416) (Homo sapiens (Human), UniProt Q8TEK3); assay: Determination of IC50, DOT1L biochemical assay
[12] = test system: non-MLL rearranged human leukemia cell lines; assay: Proliferation IC50 in panel of non-MLL-rearranged leukemia cell lines; assay type: cell-based; details: six non-MLL rearranged cell lines (FIG. 6), read-out: IC50 for inhibition of proliferation
[13] = test system: MV4-11 cells; assay: Cell cycle and apoptosis by flow cytometry (DNA content, Annexin V), MV4-11 cells; details: 3 μM, after day four over the next six days
[14] = test system: MOLM-13 cells; assay: Cell growth and viability / proliferation, MOLM-13 cells; assay type: cell-based, human
[15] = MV4-11 cells, 3 μM, time course

DOT1L(1-416), sequence (Q8TEK3 1-416): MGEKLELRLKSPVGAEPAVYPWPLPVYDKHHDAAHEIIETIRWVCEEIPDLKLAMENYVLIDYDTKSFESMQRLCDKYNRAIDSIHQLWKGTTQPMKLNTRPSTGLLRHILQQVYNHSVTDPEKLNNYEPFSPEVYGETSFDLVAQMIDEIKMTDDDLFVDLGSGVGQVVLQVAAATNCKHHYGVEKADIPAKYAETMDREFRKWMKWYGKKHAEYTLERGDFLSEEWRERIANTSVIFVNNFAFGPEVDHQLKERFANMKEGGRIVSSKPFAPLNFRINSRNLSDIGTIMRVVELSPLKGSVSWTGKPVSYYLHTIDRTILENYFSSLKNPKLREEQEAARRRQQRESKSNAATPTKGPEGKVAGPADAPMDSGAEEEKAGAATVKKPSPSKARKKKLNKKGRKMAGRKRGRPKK

Structure (SMILES): CC(C)N(CCCNC(=O)Nc1ccc(C(C)(C)C)cc1)C[C@H]1O[C@@H](n2ccc3c(N)ncnc32)[C@H](O)[C@@H]1O [Compound 16, 1-(3-((((2R,3S,4R,5R)-5-(4-amino-7H-pyrrolo[2,3-d]pyrimidin-7-yl)-3,4-dihydroxytetrahydrofuran-2-yl)methyl)(isopropyl)amino)propyl)-3-(4-(tert-butyl)phenyl)urea]
growth of cells [1]: unaffected
number of viable cells [2]: dramatically reduced
global H3K79me2 levels ([3]; MV4-11 (MLL-AF4), immunoblot): concentration dependent reduction
methyl marks affected (panel of methyl-lysine and methyl-arginine specific antibodies) ([3]; MV4-11 cells): only methyl marks affected by compound 16 treatment were H3K79me1 and H3K79me2
H3K79me2 levels within one day of treatment [3, 15]: modest reduction
time to full depletion of H3K79me2 [3, 15]: four to five
estimated half-life for HOXA9 inhibition ([4]; 3 μM, mRNA over time): 55.2 h
IC50 ([4]; MOLM-13 cells): ~0.7 µM
IC50 ([4]; MV4-11 cells): ~0.7 µM
expression of CD14 [5]: induced following 12 days
global H3K79me2 levels [6]: concentration dependent reduction
global H3K79me2 levels ([7]; MOLM-13 (MLL-AF9), immunoblot): concentration dependent reduction
estimated half-life for MEIS1 inhibition ([8]; 3 μM, mRNA over time): 79.2 h
IC50 ([8]; MOLM-13 cells): ~0.7 µM
IC50 ([8]; MV4-11 cells): ~0.7 µM
IC50 for inhibition of proliferation [9]: nanomolar to low micromolar range
transcript levels of the housekeeping gene TBP [10]: unaffected
mode of binding to the enzyme (steady state kinetic analysis) ([11]; versus SAM): binds to the enzyme competitively with SAM
IC50 [12]: > 10 µM
cell cycle and apoptosis [13]: increase in sub-G1 and Annexin-positive cells
number of viable cells ([14]; MOLM-13 cells, 3 μM, several days): dramatically reduced

IC50 [11]: < 1 µM
Structure (SMILES): CC(=O)N(CCCNC(=O)Nc1ccc(C(C)(C)C)cc1)C[C@H]1O[C@@H](n2ccc3c(N)ncnc32)[C@H](O)[C@@H]1O [Compound 21]

IC50 [11]: < 0.01 µM
Structure (SMILES): CC(C)N(CCCCc1nc2cc(C(C)(C)C)ccc2[nH]1)C[C@H]1O[C@@H](n2ccc3c(N)ncnc32)[C@H](O)[C@@H]1O [Compound 18, (2R,3R,4S,5R)-2-(4-amino-7H-pyrrolo[2,3-d]pyrimidin-7-yl)-5-(((4-(5-(tert-butyl)-1H-benzo[d]imidazol-2-yl)butyl)(isopropyl)amino)methyl)tetrahydrofuran-3,4-diol]

Structure (SMILES): CN(CCCNC(=O)Nc1ccc(C(C)(C)C)cc1)CC1O[C@@H](n2ccc3c(N)ncnc32)[C@H](O)[C@@H]1O (stereo partly shown) [Compound 9, hydrochloride]
IC50 ([7]; MOLM-13 cells, read-out: H3K79 IC50 MOLM-13 cells): 0.077 µM
IC50 ([14]; MOLM-13 cells, read-out: Proliferation IC50 MOLM-13 cells): 17.3 µM

IC50 [11]: < 1 µM
Structure (SMILES): CC(C)(C)c1ccc(NC(=O)NCCCNC[C@H]2O[C@@H](n3ccc4c(N)ncnc43)[C@H](O)[C@@H]2O)cc1 [Compound 20]

Structure (SMILES): CC(C)N(CCCNC(=O)Nc1ccc(C(C)(C)C)cc1)C[C@H]1O[C@@H](n2ccc3c(N)ncnc32)[C@H](O)[C@@H]1O [Compound 17, 1-(3-((((2R,3S,4R,5R)-5-(4-amino-7H-pyrrolo[2,3-d]pyrimidin-7-yl)-3,4-dihydroxytetrahydrofuran-2-yl)methyl)(isopropyl)amino)propyl)-3-(4-(tert-butyl)phenyl)urea hydrochloride]
IC50 ([7]; Homo sapiens, MOLM-13, read-out: H3K79 IC50 MOLM-13 cells): 0.059 µM
IC50 ([14]; Homo sapiens, MOLM-13, read-out: Proliferation IC50 MOLM-13 cells): 3.2 µM
